Reference: patent publication US8969554B2, “6-acyl-1,2,4-triazine-3,5-dione derivative and herbicides” (Kumiai Chemical Industry Co., Ltd., priority 2010, dated 2015)

Columns and labels:
Type in all cases: in vivo
Indian millet [1] = experiment: Herbicidal activity by field soil treatment (Test example 2); design: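 index 0 to 10 in 10% steps of herbicidal effect with 10 meaning complete death and 0 below 10%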; details: 1000 g effective component per hectare, day 21 after the treatment
Procedure, shortened: (§1)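 Pre-emergence soil spray: wettable-powder formulation in water at 1000 g active ingredient per hectare (1000 L/ha) onto freshly sown, soil-covered seeds in field soil. Scoring of herbicidal effect by defined criteria 21 days post-treatment, plants kept in a greenhouse.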

Echinochloa crus-galli [2] = experiment: as above; design: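 index 0 to 10 in 10% steps of herbicidal effect with 10 meaning complete death and 0 below 10%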; details: 1000 g effective component per hectare, day 21 after the treatment
Procedure, shortened: as §1

Echinochloa crus-galli [3] = experiment: Herbicidal activity by field foliage treatment (Test example 3); design: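 index 0 to 10 in 10% steps of herbicidal effect with 10 meaning complete death and 0 below 10%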; details: 1000 g effective component per hectare, day 14 after the treatment
Procedure, shortened: (§2)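 Herbicidal effect was rated on day 14 following a foliar spray of 1000 g active ingredient per hectare, applied as water-diluted wettable powder at 1000 L/ha. Plants had been raised for 2 weeks in field soil under greenhouse conditions before spraying.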

foxtail = experiment: Herbicidal activity by field soil treatment (Test example 2); details: 1000 g effective component per hectare, day 21 after the treatment;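 further: index 0 to 10 in 10% steps of herbicidal effect with 10 meaning complete death and 0 below 10%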
Protocol: [table] Test for Determining Herbicidal Activity by Field Soil Treatment A 80 cm^2 wide plastic pot was filled with a field soil and seeds of each of Echinochloa crus-galli, foxtail, Indian millet, and A. retroflexus were sowed and then covered with soil. The wettable powder produced with reference to the Formulation example 1 was diluted water, and applied on the soil surface by using a small sprayer in an amount of 1000 liters per hectare so that the effective component is 1000 g per hectare. After that, the plants were cultivated in a greenhouse, and on day 21 after the treatment, evaluation was made by the criteria described in Table 72 for determining the herbicidal effects.

Indian millet [4] = experiment: Herbicidal activity by field foliage treatment (Test example 3); design: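 index 0 to 10 in 10% steps of herbicidal effect with 10 meaning complete death and 0 below 10%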; details: 1000 g effective component per hectare, day 14 after the treatment
Procedure, shortened: (§3)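 Scoring of herbicidal effect by set criteria took place 14 days post-spray. Plants had been raised 2 weeks in field soil under glass before whole-plant foliar application of diluted wettable powder (1000 g active component/ha, spray volume 1000 L/ha).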

A. retroflexus [5] = experiment: as above; design: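 index 0 to 10 in 10% steps of herbicidal effect with 10 meaning complete death and 0 below 10%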; details: 1000 g effective component per hectare, day 14 after the treatment
Procedure, shortened: as §3

A. retroflexus [6] = experiment: Herbicidal activity by field soil treatment (Test example 2); design: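 index 0 to 10 in 10% steps of herbicidal effect with 10 meaning complete death and 0 below 10%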; details: 1000 g effective component per hectare, day 21 after the treatment
Procedure, shortened: as §1

Monochoria vaginalis = experiment: Herbicidal activity by paddy field soil treatment (Test Example 1); design: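 index 0 to 10 in 10% steps of herbicidal effect with 10 meaning complete death and 0 below 10%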; details: 1000 g of effective component per hectare, evaluated on day 21 after the treatment, criteria of Table 72
Procedure, shortened: (§4)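 Pre-emergence water-surface application one day after sowing into flooded (3 cm) paddy soil, dose 1000 g effective component per hectare from a diluted wettable powder. Plants kept in greenhouse and rated for herbicidal effect 21 days post-treatment.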

Echinochloa oryzicola = experiment: as above; design: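 index 0 to 10 in 10% steps of herbicidal effect with 10 meaning complete death and 0 below 10%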; details: 1000 g of effective component per hectare, evaluated on day 21 after the treatment, criteria of Table 72
Procedure, shortened: as §4

Scirpus juncoides Rocxb. = experiment: as above; design: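 index 0 to 10 in 10% steps of herbicidal effect with 10 meaning complete death and 0 below 10%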; details: applied on water surface, 1000 g of effective component per hectare, day 21 after the treatment
Procedure, shortened: as §4

Setaria viridis = experiment: Herbicidal activity by field foliage treatment (Test example 3); details: 1000 g effective component per hectare, day 14 after the treatment;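 further: index 0 to 10 in 10% steps of herbicidal effect with 10 meaning complete death and 0 below 10%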
Procedure, shortened: as §2

Compound | herbicidal effect index, Abutilon theophrasti (Indian millet [1]) | herbicidal effect index, Echinochloa crus-galli (Echinochloa crus-galli [2]) | herbicidal effect index, Echinochloa crus-galli (Echinochloa crus-galli [3]) | herbicidal effect index, Setaria viridis (foxtail) | herbicidal effect index, Abutilon theophrasti (Indian millet [4]) | herbicidal effect index, Amaranthus retroflexus (A. retroflexus [5]) | herbicidal effect index, Amaranthus retroflexus (A. retroflexus [6]) | Herbicidal effects index number, Monochoria vaginalis (Monochoria vaginalis) | Herbicidal effects index number, Echinochloa oryzicola (Echinochloa oryzicola) | herbicidal effect index, S. juncoides Rocxb. (Scirpus juncoides Rocxb.) | herbicidal effect index, Setaria viridis (Setaria viridis)
COc1cccc(OC)c1-n1c(=O)c(C(=O)C2=C(O)CCCC2=O)nn(C)c1=O [Compound I-98] | 7 | 7 | 7 | 7 | 9 | 8 | – | – | – | – | –
Cc1ccc(-n2c(=O)c(C(=O)C3=C(O)CCCC3=O)nn(C)c2=O)cc1C [I-87] | 9 | 9 | 9 | 6 | 9 | 10 | 9 | 10 | 9 | 10 | –
COc1ccc(-n2c(=O)c(C(=O)C3=C(O)CCCC3=O)nn(C)c2=O)cc1F [I-99] | 9 | 8 | 9 | 6 | 10 | 10 | 10 | 10 | 10 | 10 | –
COc1cc(-n2c(=O)c(C(=O)C3=C(O)CCCC3=O)nn(C)c2=O)ccc1F [I-111] | 9 | 9 | 10 | 7 | 10 | 10 | 10 | 10 | 10 | 10 | –
COc1cc(-n2c(=O)c(C(=O)C3=C(O)CCCC3=O)nn(C)c2=O)ccc1Cl [I-131] | 9 | 9 | 10 | 7 | 10 | 10 | 10 | 10 | 9 | 10 | –
CC(C)n1nc(C(=O)C2=C(O)CCCC2=O)c(=O)n(-c2ccccc2)c1=O [I-260] | 10 | 10 | 8 | 5 | 10 | 10 | 10 | 10 | 10 | 10 | –
Cn1nc(C(=O)C2=C(O)CCCC2=O)c(=O)n(-c2cccc(-c3ccccc3)c2)c1=O [I-270] | – | 8 | 9 | 7 | 9 | 10 | 10 | 8 | 8 | 8 | –
Cn1nc(C(=O)C2=C(O)CCCC2=O)c(=O)n(-c2ccc(Cl)nc2)c1=O [I-280] | 9 | 9 | 9 | 8 | 9 | 10 | 10 | 10 | 10 | 10 | –
Cc1cc(I)ccc1-n1c(=O)c(C(=O)C2=C(O)CCCC2=O)nn(C)c1=O [I-283] | 9 | 9 | 8 | 8 | 8 | 8 | 10 | 10 | 10 | 10 | –
Cn1nc(C(=O)C2=C(O)CCCC2=O)c(=O)n(CC(=O)OC(C)(C)C)c1=O [I-294] | 9 | 9 | 9 | 7 | 7 | 8 | 10 | 9 | 9 | 9 | –
CON=C(C)Cn1c(=O)c(C(=O)O)nn(C)c1=O [V-365] | 10 | 7 | 9 | – | 10 | 10 | 10 | 10 | 10 | 10 | 10
CC(C)N(c1ccccc1)n1c(=O)c(C(=O)O)nn(C)c1=O [V-369] | 7 | 7 | 9 | – | 8 | 9 | 7 | 10 | 10 | 10 | 7
Cn1nc(C(=O)C2=C(O)C(C)(C)CCC2=O)c(=O)n(-c2ccccc2)c1=O [VI-5] | 10 | 8 | 10 | – | 10 | 10 | 10 | 10 | 10 | 10 | 10
